In patent US10787444B2, “Compounds for the modulation of myc activity” (Syros Pharmaceuticals, Inc., priority 2015, dated 2020):
Structures can show the parent of a compound that is named as a salt. Where two headings read alike, the source gives them in different places.

Columns and labels:
c-Myc/Max/Ebox DNA = target: T1, c-Myc/Max/Ebox DNA (Homo sapiens, UniProt P01106); test: c-Myc/Max/Ebox DNA AlphaScreen Assay; format: binding; details: calculated IC50 class
T1 construct: his6 (cleaved yes)
T1 sequence (P01106 whole entry): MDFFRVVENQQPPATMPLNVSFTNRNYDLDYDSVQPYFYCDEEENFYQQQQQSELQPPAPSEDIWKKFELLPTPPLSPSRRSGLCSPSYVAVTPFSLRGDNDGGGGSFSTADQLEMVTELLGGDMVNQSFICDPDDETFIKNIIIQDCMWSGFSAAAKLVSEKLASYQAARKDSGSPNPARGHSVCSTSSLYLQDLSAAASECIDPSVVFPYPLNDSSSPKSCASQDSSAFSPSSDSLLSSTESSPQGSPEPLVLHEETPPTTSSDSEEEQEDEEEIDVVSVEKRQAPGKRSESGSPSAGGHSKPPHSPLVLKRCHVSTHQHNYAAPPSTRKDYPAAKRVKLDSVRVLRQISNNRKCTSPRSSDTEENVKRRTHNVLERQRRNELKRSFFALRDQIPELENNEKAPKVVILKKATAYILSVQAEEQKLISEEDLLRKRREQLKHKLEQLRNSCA
Procedure: Compounds of the invention were assayed for c-Myc/Max/EBox activity as described in the following protocol. Human his6-c-Myc and his6-Max were used with biotinylated DNA containing a single Ebox sequence (biotin[…]) purchased from MWG Operon. Free c-Myc was generated from his6-c-Myc through thrombin cleavage of the his6 tag. For 384-well plate assays, 10 μL of a 2× solution of free c-Myc (20 nM final), Ni^2+ coated Acceptor Beads (25 μg/ml final), and biotinylated Ebox oligo (10 nM final) were added to 384-well plates with a Biotek EL406 liquid handler. 50 nL of compounds from stock plates were added by pin transfer using a Janus Workstation (PerkinElmer), allowing the compounds to interact with c-Myc prior to c-Myc binding with Max. In the current assay, DMSO was not allowed to exceed 2% v/v of the assay. 10 μl of 2× master mix containing streptavidin-coated donor beads (25 μg/ml final) and his6-Max (5 nM) were added. AlphaScreen measurements were performed on an Envision plate reader (PerkinElmer) utilizing the manufacturer's protocol.
Both master mixes were made in room temperature assay buffer (50 mM HEPES, 150 mM NaCl, 0.2% w/v BSA, 0.02% w/v Tween20, 40 μg/ml glycogen, 500 μM DTT, pH 8.0, wherein both DTT and glycogen were added fresh). Alpha beads were added to respective master solutions. All subsequent steps were performed in low light conditions. Solution 1:2× solution of components with final concentrations of c-Myc Ni-coated Acceptor Beads (25 μg/ml), and biotinylated Ebox oligo (10 nM). Solution 2:2× solution of streptavidin-coated donor beads (25 μg/ml final) and his6-Max 10 μL. […] 50 nL of compounds from stock plates were added by pin transfer using a Janus Workstation. Solution 2 (10 μl) was added with the liquid handler. Plates were sealed with foil to block light exposure and prevent evaporation. Plates were very briefly centrifuged followed by 2 hour incubation. […] Excitation was at 680 nm for donor bead release of singlet oxygen and emission was read with a bandpass filter from 520-620 nm.

[1] = system: human small lung cancer cell line H2171; test: Cell Viability Assay (ATPlite); format: cell-based; details: Table 2, compounds of FIG. 1, H2171 cells, three days, ATPlite, calculated IC50 class, read-out: H2171 Activity
Procedure: Compounds of the invention were assayed for cell viability using the human small lung cancer cell line H2171 as described in the following protocol. Cells were counted and adjusted to 20,000 cells/mL. Using a Biotek EL406, 50 μL of cells in media were distributed into 384 well white plates from Thermo. Immediately after plating, compound in DMSO was distributed to plates. Compounds were added to plates using a 50 nL 384 well pin transfer manifold on a Janus workstation. Stocks were arrayed in 10 point dose response in DMSO stock in 384 well Greiner compound plates. After the addition of compounds, plates were incubated for three days in a 37° C. incubator. Cell viability was read out using ATPlite from Perkin Elmer. Lyophilized powder was resuspended in lysis buffer and diluted 1:2 with deionized water. 25 μL of this solution was added to each well using the Biotek liquid handler. Plates were incubated for 15 minutes at room temperature before signal was read on an Envision Plate Reader. The data from this assay are summarized in Tables 2 and 3 below (H2171 activity).

Compound | IC50 (c-Myc/Max/Ebox DNA; Table 3, compounds of FIG. 2) | IC50 (c-Myc/Max/Ebox DNA; Table 2, compounds of FIG. 1) | other results
CC(=O)Nc1sc2c(c1-c1nc3ccccc3s1)CC(C)NC2 (stereo not drawn) [Compound 209, N-(3-(benzo[d]thiazol-2-yl)-5-methyl-4,5,6,7-tetrahydrothieno[2,3-c]pyridin-2-yl)acetamide] | 1000 to 10000 nM | – | –
CC(=O)Nc1sc2c(c1-c1nc3ccccc3s1)CCNC2C(F)(F)F (stereo not drawn) [Compound 214, N-(3-(benzo[d]thiazol-2-yl)-7-(trifluoromethyl)-4,5,6,7-tetrahydrothieno[2,3-c]pyridin-2-yl)acetamide] | > 10000 nM | – | –
CCC(C)NCCC(=O)Nc1sc2c(c1-c1nc3cc(C(F)(F)F)ccc3s1)CCN(C(C)C)C2 (stereo not drawn) [Compound 146, 3-(sec-butylamino)-N-(6-isopropyl-3-(5-(trifluoromethyl)benzo[d]thiazol-2-yl)-4,5,6,7-tetrahydrothieno[2,3-c]pyridin-2-yl)propanamide] | – | – | IC50 [1]: < 300 nM
CC(=O)Nc1sc2c(c1-c1nc3ccccc3s1)CCC(NC1CCN(C(=O)OC(C)(C)C)CC1)C2 (stereo not drawn) [Compound 228, tert-butyl 4-((2-acetamido-3-(benzo[d]thiazol-2-yl)-4,5,6,7-tetrahydrobenzo[b]thiophen-6-yl)amino)piperidine-1-carboxylate] | > 10000 nM | – | –
CC(=O)Nc1sc2c(c1-c1nc3ccccc3s1)CCNC2C (stereo not drawn) [Compound 210, N-(3-(benzo[d]thiazol-2-yl)-7-methyl-4,5,6,7-tetrahydrothieno[2,3-c]pyridin-2-yl)acetamide] | 1000 to 10000 nM | – | –
CC(C)N1CCc2c(sc(NC(=O)CCNC3CCCC3)c2-c2nc3ccccc3s2)C1 [Compound 542, N-(3-(Benzo[d]thiazol-2-yl)-6-isopropyl-4,5,6,7-tetrahydrothieno[2,3-c]pyridin-2-yl)-3-(cyclopentylamino)propanamide] | – | – | IC50 ([1]; Homo sapiens, NCI-H2171, 72 h): < 300 nM; IC50 ([1]; listed as 111): 1000 to 10000 nM
CC(C)N1CCc2c(sc(NC(=O)CCNCCc3ccccc3Cl)c2-c2nc3ccccc3s2)C1 [Compound 109, N-(3-(benzo[d]thiazol-2-yl)-6-isopropyl-4,5,6,7-tetrahydrothieno[2,3-c]pyridin-2-yl)-3-((2-chlorophenethyl)amino)propanamide] | – | > 10000 nM | –
O=C(O)CNCCC(=O)Nc1sc2c(c1-c1nc3ccccc3s1)CCNC2 [Compound 166, (3-((3-(benzo[d]thiazol-2-yl)-4,5,6,7-tetrahydrothieno[2,3-c]pyridin-2-yl)amino)-3-oxopropyl)glycine] | – | 300 to 1000 nM | –
COCCNCCC(=O)Nc1sc2c(c1-c1nc3ccccc3s1)C[C@H](C)NC2 [Compound 538, (S)—N-(3-(Benzo[d]thiazol-2-yl)-5-methyl-4,5,6,7-tetrahydrothieno[2,3-c]pyridin-2-yl)-3-((2-methoxyethyl)amino)propanamide] | – | 300 to 1000 nM | –
CC(C)N1CCc2c(sc(NC(=O)CCNCCCOCCOCCOCCCN)c2-c2nc3ccccc3s2)C1 [Compound 120, 1-amino-N-(3-(benzo[d]thiazol-2-yl)-6-isopropyl-4,5,6,7-tetrahydrothieno[2,3-c]pyridin-2-yl)-4,7,10-trioxa-14-azaheptadecan-17-amide] | – | < 300 nM | –
CC(=O)Nc1sc2c(c1-c1nc3ccccc3s1)C(C)CCNC2 (stereo not drawn) [Compound 212, N-(3-(benzo[d]thiazol-2-yl)-4-methyl-5,6,7,8-tetrahydro-4H-thieno[2,3-c]azepin-2-yl)acetamide] | > 10000 nM | – | –
N-(3-(Benzo[d]thiazol-2-yl)-6-isopropyl-4,5,6,7-tetrahydrothieno[2,3-c]pyridin-2-yl)-3-(isobutylamino)propanamide [Compound 552] | – | > 10000 nM | –
Cc1cccc2oc(-c3c(NC(=O)CCNC(C)C)sc4c3CCNC4)nc12 [Compound 311, 3-(Isopropylamino)-N-(3-(4-methylbenzo[d]oxazol-2-yl)-4,5,6,7-tetrahydrothieno[2,3-c]pyridin-2-yl)propanamide dihydrochloride] | – | 300 to 1000 nM | –
CC(=O)Nc1sc2c(c1-c1nc3ccccc3s1)CCC(NC(C)=O)C2 (stereo not drawn) [Compound 222, N,N′-(3-(benzo[d]thiazol-2-yl)-4,5,6,7-tetrahydrobenzo[b]thiophene-2,6-diyl)diacetamide] | > 10000 nM | – | –
CC(=O)Nc1sc2c(c1-c1nc3ccccc3s1)CC(C(F)(F)F)NC2 (stereo not drawn) [Compound 215, N-(3-(benzo[d]thiazol-2-yl)-5-(trifluoromethyl)-4,5,6,7-tetrahydrothieno[2,3-c]pyridin-2-yl)acetamide] | > 10000 nM | – | –
CCOC(=O)CNCCC(=O)Nc1sc2c(c1-c1nc3ccccc3s1)CCN(C(C)C)C2 [Compound 138, Ethyl (3-((3-(benzo[d]thiazol-2-yl)-6-isopropyl-4,5,6,7-tetrahydrothieno[2,3-c]pyridin-2-yl)amino)-3-oxopropyl)glycinate] | – | 300 to 1000 nM | –
O=C(CCNCc1cn[nH]c1)Nc1sc2c(c1-c1nc3ccccc3s1)CCNC2 [Compound 167, 3-(((1H-pyrazol-4-yl)methyl)amino)-N-(3-(benzo[d]thiazol-2-yl)-4,5,6,7-tetrahydrothieno[2,3-c]pyridin-2-yl)propanamide] | – | < 300 nM | –
N-((5S,7R)-5,7-dimethyl-3-(5-(pyridin-4-yl)benzo[d]thiazol-2-yl)-4,5,6,7-tetrahydrothieno[2,3-c]pyridin-2-yl)-3-((2-methoxyethyl)amino)propanamide [Compound 532] | – | 1000 to 10000 nM | –
CC(=O)Nc1sc2c(c1-c1nc3ccccc3s1)[C@H](C)CN(C(C)C)C2 [Compound 207, (S)—N-(3-(benzo[d]thiazol-2-yl)-6-isopropyl-4-methyl-4,5,6,7-tetrahydrothieno[2,3-c]pyridin-2-yl)acetamide] | 1000 to 10000 nM | – | –
CC(C)N1CCc2c(sc(NC(=O)CCNCC(=O)O)c2-c2nc3ccccc3s2)C1 [Compound 168, (3-((3-(benzo[d]thiazol-2-yl)-6-isopropyl-4,5,6,7-tetrahydrothieno[2,3-c]pyridin-2-yl)amino)-3-oxopropyl)glycine] | – | 300 to 1000 nM | –
COCCNCCC(=O)Nc1sc2c(c1-c1nc3ccc(-c4ccncc4)cc3s1)CC(C)NC2C (single isomer, unassigned) [Compound 518, N-(5,7-Dimethyl-3-(6-(pyridin-4-yl)benzo[d]thiazol-2-yl)-4,5,6,7-tetrahydrothieno[2,3-c]pyridin-2-yl)-3-((2-methoxyethyl)amino)propanamide] | – | 1000 to 10000 nM | –
CC(=O)Nc1sc2c(c1-c1nc3ccccc3s1)C(C)CCN(C(C)C)C2 (stereo not drawn) [Compound 213, N-(3-(benzo[d]thiazol-2-yl)-7-isopropyl-4-methyl-5,6,7,8-tetrahydro-4H-thieno[2,3-c]azepin-2-yl)acetamide] | > 10000 nM | – | –
CCN1[C@H](C)Cc2c(sc(NC(C)=O)c2-c2nc3ccccc3s2)[C@@H]1C [Compound 211, N-(3-(benzo[d]thiazol-2-yl)-6-ethyl-5,7-dimethyl-4,5,6,7-tetrahydrothieno[2,3-c]pyridin-2-yl)acetamide] | 1000 to 10000 nM | – | –
CC(=O)Nc1sc2c(c1-c1nc3ccccc3s1)CCN(C(C)C)C2C (stereo not drawn) [Compound 216, N-(3-(benzo[d]thiazol-2-yl)-6-isopropyl-7-methyl-4,5,6,7-tetrahydrothieno[2,3-c]pyridin-2-yl)acetamide] | > 10000 nM | – | –
CCC(C)NCCC(=O)Nc1sc2c(c1-c1nc3cc(Br)ccc3s1)CCNC2 (stereo not drawn) [Compound 139, N-(3-(5-bromobenzo[d]thiazol-2-yl)-4,5,6,7-tetrahydrothieno[2,3-c]pyridin-2-yl)-3-(sec-butylamino)propanamide] | – | < 300 nM | –
CC(=O)Nc1sc2c(c1-c1nc3ccccc3s1)[C@@H](C)CN(C(C)C)C2 [Compound 208, (R)—N-(3-(benzo[d]thiazol-2-yl)-6-isopropyl-4-methyl-4,5,6,7-tetrahydrothieno[2,3-c]pyridin-2-yl)acetamide] | 1000 to 10000 nM | – | –
